# Assay results as given in ChEMBL document CHEMBL3856231 (J Med Chem, 2016).
# The source made the active and inactive calls. No cut-off for these calls is given here.
# What was measured:
# [1] = Half life in CD-1 mouse liver microsomes by LC/MS/MS analysis; type: ADME
# [2] = AUC (0 to infinity) in Sprague-Dawley rat at 5 mg/kg, po by LC/MS/MS analysis; type: ADME, organism-based; set-up: dose 5 mg/kg, time infinity, route oral; details: in vivo
# [3] = Binding affinity to partial length human ALK 1151Tins mutant expressed in mammalian system by KINOMEscan assay
# [4] = AUC (0 to infinity) in cynomolgus monkey at 1 mg/kg, iv by LC/MS/MS analysis; type: ADME, organism-based, Macaca fascicularis; set-up: dose 1 mg/kg, route intravenous, time infinity; details: in vivo
# [5] = Oral bioavailability in CD-1 mouse at 10 mg/kg by LC/MS/MS analysis; type: ADME, organism-based; details: in vivo
# [6] = Cytotoxicity against human KARPAS299 cells expressing NPM-ALK assessed as cell growth inhibition; type: functional, cell-based; details: KARPAS-299
# [7] = system: Mus musculus; experiment: Inhibition of NPM-ALK phosphorylation in human SUP-M2 cells xenografted in mouse at 30 mg/kg, po administered as single dose measured upto 12 hrs; type: functional, organism-based
# [8] = Drug level in tumor of NPM-ALK expressing human SUP-M2 cells xenografted mouse at 30 mg/kg, po administered as single dose measured at 2 hrs by LC-MS/MS analysis; type: ADME, organism-based, Neoplasm; details: read-out: Drug uptake
# [9] = Drug level in tumor of NPM-ALK expressing human SUP-M2 cells xenografted mouse at 30 mg/kg, po administered as single dose measured at 6 hrs by LC-MS/MS analysis; type: ADME, organism-based, Neoplasm; details: read-out: Drug uptake
# [10] = Drug level in tumor of NPM-ALK expressing human SUP-M2 cells xenografted mouse at 30 mg/kg, po administered as single dose measured at 12 hrs by LC-MS/MS analysis; type: ADME, organism-based, Neoplasm; details: read-out: Drug uptake
# [11] = Drug level in plasma of FAK expressing human CWR22 cells xenografted Nu/Nu mouse at 55 mg/kg, po administered as single dose measured at 6 hrs by LC-MS/MS analysis; type: ADME, organism-based
# [12] = molecular target: ALK tyrosine kinase receptor (Homo sapiens, UniProt Q9UM73); details: 1 uM
# Sequence of ALK tyrosine kinase receptor (Q9UM73 19-1620 limits assumed): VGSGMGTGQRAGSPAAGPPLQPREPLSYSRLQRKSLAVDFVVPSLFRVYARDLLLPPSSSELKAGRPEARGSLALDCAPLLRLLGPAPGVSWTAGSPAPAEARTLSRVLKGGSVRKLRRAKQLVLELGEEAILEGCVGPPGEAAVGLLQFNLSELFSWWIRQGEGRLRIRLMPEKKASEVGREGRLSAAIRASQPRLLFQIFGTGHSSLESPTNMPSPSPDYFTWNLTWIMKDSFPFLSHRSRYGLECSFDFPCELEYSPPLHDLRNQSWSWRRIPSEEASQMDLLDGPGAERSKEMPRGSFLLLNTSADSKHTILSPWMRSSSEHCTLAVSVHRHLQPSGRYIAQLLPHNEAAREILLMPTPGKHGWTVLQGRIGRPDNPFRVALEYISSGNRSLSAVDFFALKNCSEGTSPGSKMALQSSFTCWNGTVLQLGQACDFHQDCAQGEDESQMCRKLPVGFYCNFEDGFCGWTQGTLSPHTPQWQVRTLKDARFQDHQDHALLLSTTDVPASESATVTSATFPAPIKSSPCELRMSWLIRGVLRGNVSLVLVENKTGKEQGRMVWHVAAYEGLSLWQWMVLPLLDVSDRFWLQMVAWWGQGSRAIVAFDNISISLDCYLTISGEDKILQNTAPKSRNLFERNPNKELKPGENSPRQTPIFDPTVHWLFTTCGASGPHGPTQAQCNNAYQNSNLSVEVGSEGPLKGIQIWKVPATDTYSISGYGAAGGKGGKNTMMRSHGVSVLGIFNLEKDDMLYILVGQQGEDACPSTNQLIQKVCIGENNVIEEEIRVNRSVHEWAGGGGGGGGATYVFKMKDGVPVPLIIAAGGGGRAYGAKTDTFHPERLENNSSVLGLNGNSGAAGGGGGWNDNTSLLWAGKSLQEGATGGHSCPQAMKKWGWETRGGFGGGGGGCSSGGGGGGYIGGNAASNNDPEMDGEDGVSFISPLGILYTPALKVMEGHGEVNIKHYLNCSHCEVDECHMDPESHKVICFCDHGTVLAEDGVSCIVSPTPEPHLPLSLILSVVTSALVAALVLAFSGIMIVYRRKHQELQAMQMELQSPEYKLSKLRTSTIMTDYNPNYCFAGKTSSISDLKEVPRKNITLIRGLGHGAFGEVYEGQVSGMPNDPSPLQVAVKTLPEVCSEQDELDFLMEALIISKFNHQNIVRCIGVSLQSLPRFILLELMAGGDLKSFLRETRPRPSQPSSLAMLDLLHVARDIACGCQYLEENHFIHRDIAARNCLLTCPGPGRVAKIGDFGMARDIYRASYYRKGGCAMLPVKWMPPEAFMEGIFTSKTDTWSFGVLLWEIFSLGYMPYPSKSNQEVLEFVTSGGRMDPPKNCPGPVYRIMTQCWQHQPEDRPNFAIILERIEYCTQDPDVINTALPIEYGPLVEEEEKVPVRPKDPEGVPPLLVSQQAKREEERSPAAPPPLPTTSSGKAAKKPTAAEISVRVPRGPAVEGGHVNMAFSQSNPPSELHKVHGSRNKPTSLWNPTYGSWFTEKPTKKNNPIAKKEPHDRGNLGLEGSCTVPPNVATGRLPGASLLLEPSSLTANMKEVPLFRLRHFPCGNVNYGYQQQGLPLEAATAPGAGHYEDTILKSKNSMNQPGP
# Description: Inhibition of human ALK (1088 to 1409 residues) expressed in mammalian system at 1 uM by KINOMEscan assay
smiles,measurement,setting,value
CNC(=O)c1ccccc1Nc1nc(Nc2ccc3c(c2OC)CCC[C@H](N2CCN(CCO)CC2)C3)ncc1Cl [CEP-37440],half-life,[1],40 min
same,AUC(0-inf),[2],8360 ng·h/mL
same,Kd,[3],2.6 nM
same,AUC(0-inf),[4],554 ng·h/mL
same,bioavailability,[5],102%
same,IC50,[6],131 nM
same,inhibition,[7],Active
same,concentration at 2 h,[8],6040 ng/g
same,concentration at 6 h,[9],6930 ng/g
same,concentration at 12 h,[10],8580 ng/g
same,concentration at 6 h,[11],3790 ng/mL
same,inhibition,[12],> 90%
